From patent US20240083900A1, “PYRAZOLO[1,5-A]PYRAZINE DERIVATIVES AS BTK INHIBITORS” (BIOGEN MA INC., priority 2020, published 2024) come the findings set out here.

In experiment [1] the test system is CD69 expression on CD19+ B cells in human whole blood stimulated with anti-human IgD. Briefly: In Vitro whole blood CD69 Assay. It is filed as cell-based.
The target in the next experiment is BTK (Homo sapiens (Human), UniProt Q06187). The experiment is described as follows: In Vitro BTK Kinase Assay: Btk-PolyGAT-LS Assay. It is filed as biochemical. Conditions: BTK enzyme 0.25 nM, ATP 10 μM, polyGAT 100 nM, 30 minutes incubation, TRF readout; read-out: IC50. A digest of the protocol: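 Human BTK activity was measured with final 10 μM ATP and 100 nM polyGAT substrate in pH 7.5 Tris buffer with 10 mM MgCl2, DTT, Triton X-100 and casein.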
BTK, sequence (Q06187 whole entry): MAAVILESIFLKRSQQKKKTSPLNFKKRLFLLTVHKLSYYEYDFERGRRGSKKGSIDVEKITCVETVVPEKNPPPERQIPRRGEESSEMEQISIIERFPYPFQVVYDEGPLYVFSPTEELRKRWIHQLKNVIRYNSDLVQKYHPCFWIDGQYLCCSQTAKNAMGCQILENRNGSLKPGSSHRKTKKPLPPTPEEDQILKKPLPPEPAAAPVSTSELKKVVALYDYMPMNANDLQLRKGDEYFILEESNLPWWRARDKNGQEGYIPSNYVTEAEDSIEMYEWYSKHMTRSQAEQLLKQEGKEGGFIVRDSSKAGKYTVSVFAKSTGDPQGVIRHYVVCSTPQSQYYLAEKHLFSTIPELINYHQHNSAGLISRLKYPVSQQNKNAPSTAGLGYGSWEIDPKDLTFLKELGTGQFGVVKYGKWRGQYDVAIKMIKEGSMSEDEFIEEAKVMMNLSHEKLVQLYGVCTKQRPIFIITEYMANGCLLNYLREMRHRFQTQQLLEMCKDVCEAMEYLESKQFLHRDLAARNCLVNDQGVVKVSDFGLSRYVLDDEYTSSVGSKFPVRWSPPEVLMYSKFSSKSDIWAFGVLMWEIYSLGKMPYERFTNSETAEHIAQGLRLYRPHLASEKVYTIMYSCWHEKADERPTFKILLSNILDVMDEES

[2] abbreviates: Homo sapiens, B-cell, human heparinized whole blood, anti-human IgD stimulation overnight, percentage of CD19+ B cells expressing CD69, flow cytometry, read-out: IC50.

Read-outs that look alike come from different tables or passages of the source. Bounds are passed on as bounds.

A word on the IC50: it is the concentration at which inhibition is half-maximal. `CN(C(=O)/C=C/C#N)[C@H]1CC[C@@H](Oc2nc(-c3cnn(C)c3)cn3nccc23)C1` (racemic) [Example 150, rac-(E)-3-cyano-N-methyl-N-((1R,3S)-3-((6-(1-methyl-1H-pyrazol-4-yl)pyrazolo[1,5-a]pyrazin-4-yl)oxy)cyclopentyl)acrylamide]: the IC50 was under 1 µM in experiment [1] (setting [2]) and under 0.001 µM on BTK. For `C#CC(=O)NC1CCCN(c2nc(-c3cnn(C)c3)cn3nccc23)C1` (centres unmarked) [Example 21, N-[1-[6-(1-methylpyrazol-4-yl)pyrazolo[1,5-a]pyrazin-4-yl]-3-piperidyl]prop-2-ynamide] the same measures were 1 to 10 µM and 0.001 to 0.01 µM.

With `C=CC(=O)N[C@H]1C[C@@](C)(Oc2nc(-c3cnc(C)s3)cn3nccc23)C1` [Example 186, N-((1s,3s)-3-methyl-3-((6-(2-methylthiazol-5-yl)pyrazolo[1,5-a]pyrazin-4-yl)oxy)cyclobutyl)acrylamide], the IC50 in experiment [1] (setting [2]) was under 1 µM; at BTK, under 0.001 µM. On to `C=CC(=O)N1CCC[C@@H](Oc2nc(-c3ccc(=O)n(C)c3)cn3nccc23)CC1` (single isomer, unassigned) [Example 71 E2], for which the IC50 in experiment [1] (setting [2]) lay in the range of 1 to 10 µM; at BTK, 0.01 to 1 µM. For `C#CC(=O)NCC1CCCCN1c1nc(-c2cnn(C)c2)cn2nccc12` (single isomer, unassigned) [Example 26 E1, N-[[1-[6-(1-methylpyrazol-4-yl)pyrazolo[1,5-a]pyrazin-4-yl]-2-piperidyl]methyl]prop-2-ynamide], the IC50 is over 10 µM in experiment [1] (human heparinized whole blood, anti-human IgD stimulation overnight, percentage of CD19+ B cells expressing CD69, flow cytometry, listed as 26 E1, read-out: IC50) and 0.01 to 1 µM at BTK.

Turning to `C=CC(=O)N1CCC[C@@H](Oc2nc(-c3cnn(C)c3)cn3ncc(C(F)(F)F)c23)CC1` [Example 62, 1-[(4R)-4-[6-(1-methylpyrazol-4-yl)-3-(trifluoromethyl)pyrazolo[1,5-a]pyrazin-4-yl]oxyazepan-1-yl]prop-2-en-1-one], the IC50 in experiment [1] (setting [2]) lay in the range of 1 to 10 µM; at BTK, 0.001 to 0.01 µM. Turning to `C=CC(=O)N1CCC[C@@H](Oc2nc(-c3cnn(C)c3)cn3nccc23)CC1` [Example 29, (R)-1-(4-((6-(1-methyl-1H-pyrazol-4-yl)pyrazolo[1,5-a]pyrazin-4-yl)oxy)azepan-1-yl)prop-2-en-1-one], the IC50 in experiment [1] (setting [2]) is under 1 µM. Take `C=CC(=O)N(C)[C@]1(C)C[C@H](Oc2nc(-c3cnn(C)c3)cn3nccc23)C1` [Example 158, Cis N-methyl-N-(1-methyl-3-((6-(1-methyl-1H-pyrazol-4-yl)pyrazolo[1,5-a]pyrazin-4-yl)oxy)cyclobutyl)acrylamide]: the IC50 in experiment [1] (human heparinized whole blood, anti-human IgD stimulation overnight, percentage of CD19+ B cells expressing CD69, flow cytometry, read-out: IC50) was under 1 µM.

`C=CC(=O)N(C)[C@H]1C[C@](C)(Oc2nc(-c3cnn(C)c3)cn3nccc23)C1` [Example 217, N-methyl-N-((1r,3r)-3-methyl-3-((6-(1-methyl-1H-pyrazol-4-yl)pyrazolo[1,5-a]pyrazin-4-yl)oxy)cyclobutyl)acrylamide] gave an IC50 in experiment [1] (Homo sapiens, B-cell) of 1 to 10 µM. `C=CC(=O)N1CCC[C@@H](Oc2nc(-c3cnn(C)c3)cn3nccc23)C1` [Example 4, (R)-1-(3-((6-(1-methyl-1H-pyrazol-4-yl)pyrazolo[1,5-a]pyrazin-4-yl)oxy)piperidin-1-yl)prop-2-en-1-one]: the IC50 in experiment [1] (setting [2]) is over 10 µM.

With `C=CC(=O)N(C)[C@H]1CC[C@@H](Oc2nc(-c3cnn(C)c3)cn3nccc23)C1` [Example 145, N-methyl-N-((1S,3R)-3-((6-(1-methyl-1H-pyrazol-4-yl)pyrazolo[1,5-a]pyrazin-4-yl)oxy)cyclopentyl)acrylamide], the IC50 in experiment [1] (setting [2]) is under 1 µM.

Consider `C=CC(=O)N1C[C@@H]2C[C@H](Oc3nc(-c4cnn(C)c4)cn4nccc34)C[C@H]1C2` [Example 168, 1-((1S,3S,5R)-3-((6-(1-methyl-1H-pyrazol-4-yl)pyrazolo[1,5-a]pyrazin-4-yl)oxy)-6-azabicyclo[3.2.1]octan-6-yl)prop-2-en-1-one], for which, in experiment [1] (setting [2]), the IC50 was 1 to 10 µM. On to `C=CC(=O)N1CC[C@@H]2[C@H]1C[C@]2(C)Oc1nc(-c2cnn(C)c2)cn2nccc12` [Example 190, 1-((1R,5R,6S)-6-methyl-6-((6-(1-methyl-1H-pyrazol-4-yl)pyrazolo[1,5-a]pyrazin-4-yl)oxy)-2-azabicyclo[3.2.0]heptan-2-yl)prop-2-en-1-one], for which the IC50 in experiment [1] (setting [2]) is under 1 µM.

For `C=CC(=O)N(C)[C@H]1CCC[C@@H](Oc2nc(-c3cnn(C)c3)cn3nccc23)C1` [Example 175, N-methyl-N-((1S,3R)-3-((6-(1-methyl-1H-pyrazol-4-yl)pyrazolo[1,5-a]pyrazin-4-yl)oxy)cyclohexyl)acrylamide], the IC50 in experiment [1] (setting [2]) is under 1 µM.

`C=CC(=O)N(C)C12CCCC(Oc3nc(-c4cnn(C)c4)cn4nccc34)(C1)C2` [Example 225, N-methyl-N-(5-((6-(1-methyl-1H-pyrazol-4-yl)pyrazolo[1,5-a]pyrazin-4-yl)oxy)bicyclo[3.1.1]heptan-1-yl)acrylamide]: in experiment [1] (setting [2]), the IC50 is under 1 µM. With `C=CC(=O)N(C)C12CCC(Oc3nc(-c4cnn(C)c4)cn4nccc34)(C1)C2` [Example 99, N-methyl-N-(4-((6-(1-methyl-1H-pyrazol-4-yl)pyrazolo[1,5-a]pyrazin-4-yl)oxy)bicyclo[2.1.1]hexan-1-yl)acrylamide], in experiment [1] (setting [2]), the IC50 is under 1 µM.

Regarding `C=CC(=O)N1C[C@H]2C[C@@H](Oc3nc(-c4cnn(C)c4)cn4nccc34)C[C@@H]1C2` [Example 167, 1-((1R,3R,5S)-3-((6-(1-methyl-1H-pyrazol-4-yl)pyrazolo[1,5-a]pyrazin-4-yl)oxy)-6-azabicyclo[3.2.1]octan-6-yl)prop-2-en-1-one], the IC50 in experiment [1] (setting [2]) is under 1 µM. Turning to `C=CC(=O)N1C[C@H]2C[C@](C)(Oc3nc(-c4cnn(C)c4)cn4nccc34)[C@H]2C1` [Example 200, 1-((1S,5R,6S)-6-methyl-6-((6-(1-methyl-1H-pyrazol-4-yl)pyrazolo[1,5-a]pyrazin-4-yl)oxy)-3-azabicyclo[3.2.0]heptan-3-yl)prop-2-en-1-one], the IC50 in experiment [1] (setting [2]) is under 1 µM. As for `C=CC(=O)N(C)[C@H]1C[C@H](Oc2nc(-c3cnn(C)c3)cn3nccc23)C1` [Example 185, N-methyl-N-((trans)-3-((6-(1-methyl-1H-pyrazol-4-yl)pyrazolo[1,5-a]pyrazin-4-yl)oxy)cyclobutyl)acrylamide], the IC50 in experiment [1] (setting [2]) was 1 to 10 µM.

In the case of `C=CC(=O)N(C)[C@H]1C[C@@](C)(Oc2nc(-c3cnn(C)c3)cc3nccn23)C1` [Example 236, N-methyl-N-((1s,3s)-3-methyl-3-((7-(1-methyl-1H-pyrazol-4-yl)imidazo[1,2-c]pyrimidin-5-yl)oxy)cyclobutyl)acrylamide], the IC50 in experiment [1] (Homo sapiens, B-cell) is under 1 µM. Regarding `C=CC(=O)N1CC[C@@H](Oc2nc(-c3cnn(C)c3)cn3nccc23)C1` [Example 11, (R)-1-(3-((6-(1-methyl-1H-pyrazol-4-yl)pyrazolo[1,5-a]pyrazin-4-yl)oxy)pyrrolidin-1-yl)prop-2-en-1-one], in experiment [1] (setting [2]), the IC50 is over 10 µM.

`C=CC(=O)N1C[C@@H]2C[C@@](C)(Oc3nc(-c4cnn(C)c4)cn4nccc34)[C@@H]2C1` [Example 199, 1-((1R,5S,6R)-6-methyl-6-((6-(1-methyl-1H-pyrazol-4-yl)pyrazolo[1,5-a]pyrazin-4-yl)oxy)-3-azabicyclo[3.2.0]heptan-3-yl)prop-2-en-1-one]: the IC50 in experiment [1] (setting [2]) was in the range of 1 to 10 µM.

In experiment [1] (Homo sapiens, B-cell), `C=CC(=O)N(C)[C@H]1C[C@@](C)(Oc2nc(-c3cnn(C)c3)cn3nccc23)C1` [Example 79, N-methyl-N-((1s,3s)-3-methyl-3-((6-(1-methyl-1H-pyrazol-4-yl)pyrazolo[1,5-a]pyrazin-4-yl)oxy)cyclobutyl)acrylamide] had an IC50 of under 1 µM.
